# Reference: PubChem BioAssay (NCI)
#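 Five concentrations, 48 hours, 96-well plates. GI50: concentration for 50% inhibition of growth. TGI marks complete inhibition of growth.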
# Columns and labels:
# Test in all cases: NCI-60 cell line screen, 48 h
# ACHN renal = tested on: ACHN renal
# KM12 colon = tested on: KM12 colon
# MALME-3M melanoma = tested on: MALME-3M melanoma
# NCI-H226 lung = tested on: NCI-H226 lung
# OVCAR-3 ovarian = tested on: OVCAR-3 ovarian
# SF-295 CNS = tested on: SF-295 CNS
# T-47D breast = tested on: T-47D breast
# TK-10 renal = tested on: TK-10 renal
# U251 CNS = tested on: U251 CNS
# SK-OV-3 ovarian = tested on: SK-OV-3 ovarian
Structure (SMILES),GI50 (ACHN renal) [µM],TGI (ACHN renal) [µM],GI50 (KM12 colon) [µM],TGI (KM12 colon) [µM],GI50 (MALME-3M melanoma) [µM],TGI (MALME-3M melanoma) [µM],GI50 (NCI-H226 lung) [µM],TGI (NCI-H226 lung) [µM],GI50 (OVCAR-3 ovarian) [µM],TGI (OVCAR-3 ovarian) [µM],GI50 (SF-295 CNS) [µM],TGI (SF-295 CNS) [µM],GI50 (T-47D breast) [µM],TGI (T-47D breast) [µM],GI50 (TK-10 renal) [µM],TGI (TK-10 renal) [µM],GI50 (U251 CNS) [µM],TGI (U251 CNS) [µM],TGI (SK-OV-3 ovarian) [µM],GI50 (SK-OV-3 ovarian) [µM]
COc1cc2nc(-c3ccc(Cl)cc3)cc(OCCCN3CCCCC3)c2cc1OC,2.45,> 100,3.07,> 100,1.74,4.53,1.12,3.73,3.23,> 100,1.21,2.81,1.31,> 100,3.73,> 100,1.89,> 100,–,–
Cc1cc([N+](=O)[O-])ccc1Nc1cccc(Cl)c1C,–,41.4,–,31,–,29.2,–,34.9,–,27.8,–,34.6,–,–,–,30,–,29.8,47.7,–
[N-]=[N+]=NC12CC3C4CC5CC3C(C1)C(C5)C4C2,–,> 100,–,> 100,–,> 100,–,> 100,–,> 100,–,> 100,–,–,–,> 100,–,> 100,> 100,–
O=[N+]([O-])c1ccc(C2=Nn3cnnc3SC2)o1,–,29.4,–,47.6,–,–,–,67.2,–,31.7,–,34.6,–,–,–,> 100,–,30.1,–,–
COc1cccc(/C=C/c2cc(OC)c(OC)c(OC)c2)c1,–,> 100,–,> 100,–,> 100,–,> 100,–,> 100,–,–,–,–,–,–,–,> 100,> 100,–
COC(=O)c1cc2c(s1)C(=O)c1ccccc1-2,–,> 100,–,> 100,–,> 100,–,> 100,–,> 100,–,> 100,–,–,–,> 100,–,> 100,> 100,–
S=C(Nc1ccccc1)N(/N=C/C=C/c1ccccc1)c1nnc(-c2ccccc2)c(-c2ccccc2)n1,–,> 100,–,> 100,–,> 100,–,> 100,–,> 100,–,> 100,–,–,–,> 100,–,> 100,> 100,–
CN(C)N=Nc1ccc(NC=O)cc1,–,> 100,–,> 100,–,–,–,–,–,> 100,–,> 100,–,> 100,–,> 100,–,> 100,> 100,–
Cn1c2ccccc2c2c3c(c4c5cc(Br)ccc5n(C)c4c21)C(=O)N(O)C3=O,0.0346,0.124,0.426,> 100,0.494,> 100,–,–,–,–,0.217,0.981,–,–,27.7,> 100,0.0499,0.489,–,–
NC(=Nc1c([N+](=O)[O-])cnc2ccccc12)N1CCOCC1,–,> 100,–,> 100,–,–,–,> 100,–,> 100,–,> 100,–,> 100,–,> 100,–,> 100,> 100,–
O=C(/C=C/c1ccccc1O)c1ccccc1O,–,> 100,–,> 100,–,> 100,–,> 100,–,> 100,–,> 100,–,–,–,> 100,–,> 100,> 100,–
O=C(Nc1ccc(Cl)cc1F)c1ccccc1O,2.36,7.54,2.97,20.3,2.26,8.8,2.23,8.85,2.98,> 100,2.35,5.87,2.49,> 100,4.54,47.1,3.42,> 100,–,–
CCC[CH2][Sn]1([CH2]CCC)[O]N=C(c2ccccc2)C(c2ccccc2)[O]1 (configuration not stated),1.72,3.1,3.49,14.1,1.13,2.49,2.09,5.59,1.42,2.84,1.73,3.41,–,–,1.9,4.09,1.54,2.9,12.7,3.84
CCCCC(C(=O)C(=O)NC1C2CC3CC(C2)CC1C3)C(=O)C(C)C (configuration not stated),–,> 100,–,> 100,–,> 100,–,> 100,–,> 100,–,> 100,–,–,–,> 100,–,> 100,> 100,–
C=C(CNCc1ccccc1)c1ccc(C(=O)Nc2ccccc2N)cc1,9.79,84.3,4.05,21.3,–,–,–,–,7.31,34.2,7.28,37,1.59,> 100,4.68,21.7,9.86,> 100,22.8,4.22
COC(=O)C(=Cc1cc(OC)ccc1OC)C(=O)OC,–,35.1,–,42.8,–,74.6,–,> 100,–,50.6,–,82.1,–,–,–,97.4,–,42.9,76.2,–
O=C(CCn1[nH]c(=O)c(Cl)c(Cl)c1=O)NO,–,> 100,–,> 100,–,> 100,–,> 100,–,> 100,–,> 100,–,–,–,> 100,–,> 100,> 100,–
OC[C@H]1C[C@](O)(c2ccc(Cl)cc2)[C@@H](c2ccc(Cl)cc2)O1,28,97.3,20.6,51,21.5,45.4,26.4,72.8,26.2,58.9,30.1,84.8,–,–,30.5,84.3,24.8,69.5,> 100,39.4
Cn1cc(CO)c2c1C(=O)C=C(N1CC1)C2=O,< 0.01,0.0102,0.0145,0.0855,–,–,–,–,< 0.0133,0.0375,< 0.01,–,0.353,7.81,0.0215,–,< 0.01,0.0726,1.31,0.0413
